“Also recorded” adds a separate entry of the source.
How the values were obtained:
Format in all cases: cell-based, human
[1] = tested on: hESCs (SA121); experiment: Feeder-free culture of hESCs without exogenous FGF, supplemented with EHNA
Method: Cells were grown on fibronectin coated dishes. A fibronectin (Calbiochem) solution (0.1 mg/ml) (diluted in PBS) is used to coat the tissue culture dishes for 15 mins at 37 C.
The fully supportive media used to culture the stem cells was a 1:1 mixture of defined media (see below) and conditioned vitrohES. vitrohES media was conditioned for 24 hours on a layer of mitotically inactivated mouse embryonic fibroblasts plated at 4×10^5 cells/ml of conditioned media. Passaging was performed first by removing the media from the cells and washing with PBS. Trypsin (sourced from Invitrogen) was added to the cells and incubated for 1-2 mins at room temperature. Fresh media was added to neutralize the cells and then gently scraped off using a cell scraper and passaged 1 in 4 to fibronectin coated dishes.
After washing with PBS, cells were fixed in 4% paraformaldehyde (Sigma) for 10 mins at room temperature and washed again. Cells were then permeabilised in ethanol for 2 minutes. Blocking was performed in 10% Goat serum (sigma)/PBS (Invitrogen) for one hour at room temperature. The following primary antibodies (dilutions in brackets) were then incubated for 1 hour at room temperature diluted in blocking solution: mouse anti-POU5F1 (Santa cruz) (1:250), rabbit anti-PAX6 (Chemicon) (1:1000), mouse anti B-tubulin III (Sigma) (1:1000), mouse anti-Alpha-feta-protein (AFP) (Sigma) (1:400), mouse anti-muscle-specific actin (SMA) (Dako) (1:50), SSEA1 (Hybdridoma bank University of IOWA) (1:5), SSEA3 (Hybdridoma bank University of IOWA) (1:5), SSEA4 (Hybdridoma bank. University of IOWA) (1:5), Tra1-60 (Santa cruz) (1:200) and Tra1-80 (Santa Cruz) (1:200). […] All immunofluorescence was visualised and captures using Zeiss Axiovision image analysis system (http://www.ziess.com).
(§1) hESCs (SA121) were placed into standard feeder free conditions without exogenous FGF (including conditioned media made without addition of exogenous FGF) but supplemented with 10 μM EHNA. Cells were initially seeded from a trypsin passage of a standard, FGF containing, feeder free culture (passage 33 post feeder free; p100 total).
Controls were also set up without FGF or EHNA. Three lines were set up to grow independently for each condition and these were routinely passaged using trypsin as normal. Passaging was usually a 1 in 4 split approximately every 4 days.
as §1, with “A further culture of SA121 was transferred to” for “hESCs (SA121) were placed into”, “7” for “33”, “p 48” for “p100”

[2] = tested on: hESCs; experiment: Directed monolayer neuronal differentiation with and without EHNA
Method: […] RNA samples were taken at various time intervals and a variety of marker gene expression was measured using qRT-PCR.
In FIGS. 11a-d, the value of 1 was set to the level of expression in undifferentiated hES cells. In FIG. 12a, the value of 1 was set to the expression level in the untreated control samples.

[3] = tested on: SA121 hESCs; experiment: General (monolayer) differentiation on matrigel in defined media, qRT-PCR of stem cell and differentiation markers after 14 days; design: key to Full EHNA effect: those which maintained at least 50% of the level of NANOG-expression in comparison to EHNA and those that inhibited the expression of PAX6 to 50% or less than the value untreated controls were considered to have an EHNA-like effect; conditions: 14 days, qRT-PCR
Method: In order to ascertain the efficacy of the compounds of the present invention, each compound was tested to determine whether it can maintain the stem cell marker NANOG and/or block the differentiation marker PAX6 in the face of differentiating conditions in a manner similar to EHNA. Cells enzymatically passaged onto matrigel-coated dishes and grown for 2 weeks in defined media with or without (control) compound addition were analysed by qRT-PCR to determine the level of NANOG and PAX6 expression.
For general differentiation experiments cells were passaged with trypsin onto matrigel coated twelve-well dishes in the fully supportive media (see above). The media was then changed to defined media 24 h later and any experimental component was first added at this point. The media and experimental supplement were changed daily.
Cells were routinely harvested for qRT-PCR analysis 14 days after the first addition of the experimental compound.
Total RNA was extracted using QIAGEN RNeasy kits (Qiagen Inc, Valencia, Calif., http://www.qiagen.com) and DNaseI treatment was performed using Turbo DNA-Free (Ambion). The absence of genomic DNA was confirmed by quantitative PCR (qPCR) (see below) using glyceraldehyde-3-phosphate dehydrogenase (GAPDH) Taqman primers and probe (MWG). cDNA was synthesized with 2 μg total RNA in 20 μl using Superscript II according to manufacturers' instructions ((Carlsbad, Calif., http://www.Invitrogen.com)). For qPCR, cDNAs were diluted 1 in 60 and 5 μl used per sample in a 15 μl total reaction volume. Platinum pPCR supermix UDG with Rox (Carlsbad, Calif., http://www.Invitrogen.com) was used according to the manufacturer's instructions using an Applied Biosystems 7300 real time PCR system (Applied Biosystems, Warrington, UK, http://europe.appliedbiosystems.com). Each reaction contained 0.6 μM of each primer and Taqman probe (MWG). Biological and technical replicates were each performed in triplicate for each sample, standardised to the GAPDH housekeeping gene and relative expression values were calculated using the 7300 system SDS software (Applied Biosystems, Warrington, UK, http://europe.appliedbiosystems.com).
Cells were enzymatically passaged onto matrigel-coated dishes and grown for 2 weeks in defined media. After 14 days, qRT-PCR was utilised to analyse the expression of a variety of markers of pluripotency and differentiation. In the graphs in FIG. 9 the value 1 was set to the expression level of the gene in undifferentiated SA121 hESCs.
Cells were enzymatically passaged onto matrigel-coated dishes and grown for 2 weeks in defined media (1× confluent T25 tissue culture flask was passaged to 2×12 well dishes) with or without (control) compound addition. All compounds were added at 10 uM and each was performed in triplicate. Media and compounds were changed every 48 hours. After 14 days RNA was isolated and qRT-PCR was utilised to analyse the expression of NANOG and PAX6. The results are illustrated in FIGS. 13 to 17.
In the graphs in FIGS. 13, 14 15, 16 and 17 the value 1 was set relative to the expression level of the gene in the control (no compound) samples. […] This experiment allowed the effect of the EHNA-related compounds to be measured directly in comparison to EHNA. […] Those which had on effect, to these levels, on either PAX6 or NANOG were considered to have a partial-EHNA effect.

[4] = tested on: hESC line SA461; experiment: hESC line transferred directly from MEF feeders to feeder-free culture without FGF, supplemented with EHNA; conditions: passage 7, 10 uM EHNA, no exogenous FGF
Method: A culture of the hESC line SA461 was transferred from a supportive MEF feeder layer directly, using manual dissection, to standard feeder free conditions in the absence of exogenous FGF but supplemented with 10 uM EHNA. A control was also grown with neither FGF nor EHNA present. Cells were subsequently passaged by the standard trypsin feeder free technique. It was determined by passage 7 that the EHNA containing cultures were almost 100% positive for POU5F1 whereas positive staining in the cultures absent for FGF and EHNA was minimal (FIG. 8).

[5] = 10 passages, immunofluorescence

Question: Which results are given for `CCCCCC[C@@H]([C@@H](C)O)n1cnc2c(N)ncnc21.Cl` [EHNA, erythro-9-(2-Hydroxy-3-nonyl)adenine, HCl]?
Answer: maintenance of hESCs in an undifferentiated state in the absence of FGF ([1]; 10 μM EHNA, feeder free, no exogenous FGF): can be maintained in an undifferentiated state in the absence of FGF if EHNA is present; differentiation marker SSEA1 [1, 5]: negative; stem-cell markers SSEA3, SSEA4, TRA-160, TRA-180 and OCT4 [1, 5]: positive; expression of the stem cell markers NANOG and POU5F1 in the absence of FGF ([1]; FIG. 3): maintained; ability to differentiate to all three germ layers ([1]; after at least 22 passages without FGF with EHNA): can differentiate to all three germ layers; karyotype ([1]; passage 21, at least one replicate line): karyotypically normal; POU5F1 staining ([1]; passage 21, immunofluorescence): all positive for POU5F1; hESC gene expression (TLDA) ([1]; passage 30, compared with hESCs grown with FGF without EHNA): appropriate hESC gene expression; cells staining positive for POU5F1 versus untreated differentiation ([2]; 4 weeks (28 days) of neuronal differentiation): At least 10 times; PAX6 levels relative to the control differentiation ([2]; 4 weeks of differentiation (passage at 2 weeks)): > 50%; levels of the stem cells markers NANOG and ZFP42 ([2]; 4 weeks of differentiation, versus control): considerably higher levels; effect on PAX6 / neuronal marker expression ([2]; early neuronal differentiation, qRT-PCR, HCl): delays the onset and reduces the amount of neuronal marker expression; also recorded: delay or reduce the level of expression; expression levels of the stem cell genes POU5F1, NANOG and ZFP42 ([2]; first 2 weeks of neuronal differentiation, qRT-PCR): maintained largely at undifferentiated levels; Full EHNA effect ([3]; 10 uM, NANOG at least 50% of EHNA level and PAX6 50% or less of untreated control): X; SOX2 transcription in differentiating conditions ([3]; FIG. 9a): maintained transcription at the same level as seen in undifferentiated hESCs and the untreated samples; stem cell marker expression (NANOG, ZFP42, POU5F1) in differentiating conditions ([3]; FIG. 9a): distinctly inhibited the down-regulation of the stem cell markers NANOG, ZFP42 and POU5F1; induction of other differentiation markers (AFP, CD34, Brachyury, PECAM1, CDX2 and FOXA2) ([3]; data not shown): No induction of these markers; NANOG expression in differentiating conditions ([3]; relative to untreated control): clearly maintains a higher level of NANOG than the untreated control; PAX6 expression in differentiating conditions ([3]; HCl): inhibited the rise of PAX6 expression levels; also recorded: inhibits the onset of the differentiation marker PAX6; cells positive for POU5F1 [4]: ~100%

— patent publication US20120202287A1, “Stem Cell Culture Methods” (priority 2009, published 2012)
